Laboratory results from patent US8445503B2, “Inhibitors of polo-like kinase” (Elan Pharmaceuticals, Inc., priority 2009, dated 2013).
Read-outs that look alike come from different tables or passages of the source.

Key:
Assay type in all cases: biochemical
[1] = target: GST-PLK1 (Homo sapiens, UniProt P53350); experiment: PLK TR-FRET peptide assay, PLK1; settings: read-out: Plk1 IC50
[2] = target: T1, GST-PLK3 (Homo sapiens, UniProt Q9H4B4); experiment: PLK TR-FRET peptide assay, PLK3; settings: read-out: Plk3 IC50
T1 construct: purchased CarnaBio
T1 sequence (Q9H4B4 whole entry): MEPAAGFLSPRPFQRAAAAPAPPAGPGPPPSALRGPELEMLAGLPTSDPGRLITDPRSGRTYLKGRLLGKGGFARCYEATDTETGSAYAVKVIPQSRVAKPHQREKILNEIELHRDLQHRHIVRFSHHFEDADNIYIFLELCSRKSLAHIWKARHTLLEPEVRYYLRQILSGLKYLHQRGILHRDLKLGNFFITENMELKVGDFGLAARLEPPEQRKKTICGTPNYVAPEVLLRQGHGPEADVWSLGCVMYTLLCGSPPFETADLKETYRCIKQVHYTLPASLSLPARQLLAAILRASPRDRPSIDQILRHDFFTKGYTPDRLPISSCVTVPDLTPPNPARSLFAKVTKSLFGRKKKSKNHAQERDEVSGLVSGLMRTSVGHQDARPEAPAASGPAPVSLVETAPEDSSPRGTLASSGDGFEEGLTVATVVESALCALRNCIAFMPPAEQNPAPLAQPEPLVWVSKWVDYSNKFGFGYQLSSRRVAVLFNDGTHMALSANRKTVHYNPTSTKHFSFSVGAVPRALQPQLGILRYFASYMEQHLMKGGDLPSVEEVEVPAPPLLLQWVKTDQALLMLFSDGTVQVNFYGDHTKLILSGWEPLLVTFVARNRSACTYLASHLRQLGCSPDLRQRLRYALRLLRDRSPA

[3] = target: T2, GST-PLK2 (Homo sapiens, UniProt Q9NYY3); experiment: PLK TR-FRET peptide assay, PLK2; settings: for IC50: PLK TR-FRET peptide assay, GST-PLK2, read-out: Plk2 IC50
T2 construct: purchased CarnaBio
T2 sequence (Q9NYY3 whole entry): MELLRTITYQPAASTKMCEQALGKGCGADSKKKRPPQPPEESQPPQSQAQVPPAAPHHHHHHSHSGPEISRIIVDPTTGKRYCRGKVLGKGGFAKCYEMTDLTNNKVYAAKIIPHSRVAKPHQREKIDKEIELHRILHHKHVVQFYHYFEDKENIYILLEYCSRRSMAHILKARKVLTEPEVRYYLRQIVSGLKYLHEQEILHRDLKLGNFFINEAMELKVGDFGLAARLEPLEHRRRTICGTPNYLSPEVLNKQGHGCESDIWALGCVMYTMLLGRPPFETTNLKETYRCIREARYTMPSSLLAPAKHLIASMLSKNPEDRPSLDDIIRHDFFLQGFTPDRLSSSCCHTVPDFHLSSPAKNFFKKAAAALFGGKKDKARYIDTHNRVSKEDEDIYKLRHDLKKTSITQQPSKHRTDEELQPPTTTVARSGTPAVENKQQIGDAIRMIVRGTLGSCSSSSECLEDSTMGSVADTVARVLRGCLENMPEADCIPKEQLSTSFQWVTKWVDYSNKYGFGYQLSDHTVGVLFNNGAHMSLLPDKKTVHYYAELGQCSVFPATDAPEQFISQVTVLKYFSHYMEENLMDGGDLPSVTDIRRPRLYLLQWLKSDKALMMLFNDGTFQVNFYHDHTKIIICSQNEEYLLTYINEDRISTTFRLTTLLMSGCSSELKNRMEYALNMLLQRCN

[4] = PLK TR-FRET peptide assay, GST-PLK3

GST-PLK1, sequence (P53350 whole entry): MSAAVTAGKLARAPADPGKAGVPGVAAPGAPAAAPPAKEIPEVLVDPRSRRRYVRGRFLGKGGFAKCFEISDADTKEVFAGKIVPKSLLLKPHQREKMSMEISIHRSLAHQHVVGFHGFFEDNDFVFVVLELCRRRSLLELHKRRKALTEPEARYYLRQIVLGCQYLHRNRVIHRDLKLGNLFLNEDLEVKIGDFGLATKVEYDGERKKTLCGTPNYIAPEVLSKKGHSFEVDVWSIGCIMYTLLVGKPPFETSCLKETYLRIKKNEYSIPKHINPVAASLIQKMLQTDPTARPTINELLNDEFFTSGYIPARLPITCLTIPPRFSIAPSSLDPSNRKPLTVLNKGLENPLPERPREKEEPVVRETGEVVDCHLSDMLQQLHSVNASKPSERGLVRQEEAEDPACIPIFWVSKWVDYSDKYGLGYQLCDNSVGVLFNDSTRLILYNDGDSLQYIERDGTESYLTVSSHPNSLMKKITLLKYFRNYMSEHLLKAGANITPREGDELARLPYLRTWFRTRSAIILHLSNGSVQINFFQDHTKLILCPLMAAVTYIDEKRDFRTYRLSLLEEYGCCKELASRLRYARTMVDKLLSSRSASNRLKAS

Structure (SMILES)	IC50 [1]	IC50 [2, 4]	IC50 [3]	IC50 [2]	PLK2 activity relative to the opposite enantiomer / other isomer ([3]; comparison of resolved enantiomers, used to assign absolute configuration)
CCC12COCCN1c1nc(-n3ccnc3-c3ccccc3)ncc1N(C)C2=O (racemic) [Example 317, 6a-ethyl-5-methyl-2-(2-phenyl-1H-imidazol-1-yl)-6a,7,9,10-tetrahydro-[1,4]oxazino[3,4-h]pteridin-6(5H)-one]	10 to 50 µM	1 to 10 µM	< 1 µM	–	–
CCC12CN(C)CCN1c1nc(-n3ccnc3-c3ccccc3)ncc1N(C)C2=O (racemic) [Example 371, 6a-ethyl-5,8-dimethyl-2-(2-phenyl-1H-imidazol-1-yl)-7,8,9,10-tetrahydro-5H-pyrazino[2,1-h]pteridin-6(6aH)-one]	> 50 µM	> 50 µM	< 1 µM	–	–
CCC12COCCN1c1nc(-c3cn[nH]c3-c3ccc(F)cc3F)ncc1N(C)C2=O (racemic) [Example 405, 2-(5-(2,4-difluorophenyl)-1H-pyrazol-4-yl)-6a-ethyl-5-methyl-6a,7,9,10-tetrahydro-[1,4]oxazino[3,4-h]pteridin-6(5H)-one]	10 to 50 µM	1 to 10 µM	< 1 µM	–	–
CC[C@@H]1C(=O)N(C)c2cnc(-n3ccnc3)nc2N1C1CCOC1 (single isomer, unassigned) [Example 299]	1 to 10 µM	10 to 50 µM	< 1 µM	–	–
CC[C@@]12COCCN1c1nc(-n3ccnc3-c3ccccc3)ncc1N(C)C2=O (single isomer, unassigned) [Example 314]	> 50 µM	1 to 10 µM	< 1 µM	–	–
CC[C@]12COCCN1c1nc(-n3ccnc3-c3ccccc3)ncc1N(C)C2=O (single isomer, unassigned) [Example 315]	> 50 µM	> 50 µM	10 to 50 µM	–	–
CC[C@@H]1C(=O)N(C)c2cnc(-n3ccnc3)nc2N1C1CCCC1 [Example 3, (R)-8-cyclopentyl-7-ethyl-2-(1H-imidazol-1-yl)-5-methyl-7,8-dihydropteridin-6(5H)-one]	< 1 µM	10 to 50 µM	< 1 µM	–	–
CC[C@@H]1C(=O)N(C)c2cnc(-c3ccncc3)nc2N1C1CCCC1 [Example 5, (R)-8-cyclopentyl-7-ethyl-5-methyl-2-(pyridin-4-yl)-7,8-dihydropteridin-6(5H)-one]	< 1 µM	10 to 50 µM	< 1 µM	–	–
CC[C@@H]1C(=O)N(C)c2cnc(-c3cn[nH]c3)nc2N1C1CCCC1 [Example 7, (R)-8-cyclopentyl-7-ethyl-5-methyl-2-(1H-pyrazol-4-yl)-7,8-dihydropteridin-6(5H)-one]	< 1 µM	–	< 1 µM	–	–
CC[C@@H]1C(=O)N(C)c2cnc(-c3cc[n+]([O-])cc3)nc2N1C1CCCC1 [Example 13, (R)-4-(8-cyclopentyl-7-ethyl-5-methyl-6-oxo-5,6,7,8-tetrahydropteridin-2-yl)pyridine 1-oxide]	1 to 10 µM	–	1 to 10 µM	–	–
CC[C@@H]1C(=O)N(C)c2cnc(-c3ccnc(O)c3)nc2N1C1CCCC1 [Example 14, (R)-8-cyclopentyl-7-ethyl-2-(2-hydroxypyridin-4-yl)-5-methyl-7,8-dihydropteridin-6(5H)-one]	< 1 µM	–	< 1 µM	–	–
CCOC(=O)c1cnn(-c2ncc3c(n2)N(C2CCCC2)[C@H](CC)C(=O)N3C)c1 [Example 18, (R)-ethyl 1-(8-cyclopentyl-7-ethyl-5-methyl-6-oxo-5,6,7,8-tetrahydropteridin-2-yl)-1H-pyrazole-4-carboxylate]	< 1 µM	10 to 50 µM	1 to 10 µM	–	–
CC[C@@H]1C(=O)N(C)c2cnc(-c3ccn(C)c(=O)c3)nc2N1C1CCCC1 [Example 19, (R)-8-cyclopentyl-7-ethyl-5-methyl-2-(1-methyl-2-oxo-1,2-dihydropyridin-4-yl)-7,8-dihydropteridin-6(5H)-one]	< 1 µM	10 to 50 µM	< 1 µM	–	–
CC[C@@H]1C(=O)N(C)c2cnc(-n3ccnc3)nc2N1C(C)C [Example 22, (R)-7-ethyl-2-(1H-imidazol-1-yl)-8-isopropyl-5-methyl-7,8-dihydropteridin-6(5H)-one]	1 to 10 µM	> 50 µM	< 1 µM	–	–
CC[C@@H]1C(=O)N(C)c2cnc(-n3cnc(CC#N)c3)nc2N1C1CCCC1 [Example 35, (R)-2-(1-(8-cyclopentyl-7-ethyl-5-methyl-6-oxo-5,6,7,8-tetrahydropteridin-2-yl)-1H-imidazol-4-yl)acetonitrile]	1 to 10 µM	10 to 50 µM	< 1 µM	–	–
CC[C@@H]1C(=O)N(C)c2cnc(-n3cnc(C(=O)O)c3)nc2N1C1CCCC1 [Example 37, (R)-1-(8-cyclopentyl-7-ethyl-5-methyl-6-oxo-5,6,7,8-tetrahydropteridin-2-yl)-1H-imidazole-4-carboxylic acid]	< 1 µM	< 1 µM	< 1 µM	–	–
CC[C@@H]1C(=O)N(C)c2cnc(-n3cnc(C(=O)OC)c3)nc2N1C1CCCC1 [Example 38, (R)-methyl 1-(8-cyclopentyl-7-ethyl-5-methyl-6-oxo-5,6,7,8-tetrahydropteridin-2-yl)-1H-imidazole-4-carboxylate]	< 1 µM	1 to 10 µM	1 to 10 µM	–	–
CC[C@@H]1C(=O)N(C)c2cnc(-n3cc(C(=O)N(C)C)cn3)nc2N1C1CCCC1 [Example 39, (R)-1-(8-cyclopentyl-7-ethyl-5-methyl-6-oxo-5,6,7,8-tetrahydropteridin-2-yl)-N,N-dimethyl-1H-pyrazole-4-carboxamide]	1 to 10 µM	10 to 50 µM	1 to 10 µM	–	–
CC[C@@H]1C(=O)N(C)c2cnc(-n3cc(C(=O)NC)cn3)nc2N1C1CCCC1 [Example 40, (R)-1-(8-cyclopentyl-7-ethyl-5-methyl-6-oxo-5,6,7,8-tetrahydropteridin-2-yl)-N-methyl-1H-pyrazole-4-carboxamide]	< 1 µM	10 to 50 µM	–	–	–

Structure (SMILES)	IC50 [1]	IC50 [2, 4]	IC50 [3]	IC50 [2]	PLK2 activity relative to the opposite enantiomer / other isomer ([3]; comparison of resolved enantiomers, used to assign absolute configuration)
CC[C@@H]1C(=O)N(C)c2cnc(-n3cc(C(=O)N4CCOCC4)cn3)nc2N1C1CCCC1 [Example 41, (R)-8-cyclopentyl-7-ethyl-5-methyl-2-(4-(morpholine-4-carbonyl)-1H-pyrazol-1-yl)-7,8-dihydropteridin-6(5H)-one]	1 to 10 µM	10 to 50 µM	1 to 10 µM	–	–
CC[C@@H]1C(=O)N(C)c2cnc(-n3cnc(Br)c3)nc2N1C1CCCC1 [Example 43, (R)-2-(4-bromo-1H-imidazol-1-yl)-8-cyclopentyl-7-ethyl-5-methyl-7,8-dihydropteridin-6(5H)-one]	< 1 µM	10 to 50 µM	< 1 µM	–	–
CC[C@@H]1C(=O)N(C)c2cnc(-n3cc(C(=O)O)cn3)nc2N1C1CCCC1 [Example 44, (R)-1-(8-cyclopentyl-7-ethyl-5-methyl-6-oxo-5,6,7,8-tetrahydropteridin-2-yl)-1H-pyrazole-4-carboxylic acid]	< 1 µM	1 to 10 µM	1 to 10 µM	–	–
CC[C@@H]1C(=O)N(C)c2cnc(-n3cnc(C(=O)N4CCOCC4)c3)nc2N1C1CCCC1 [Example 45, (R)-8-cyclopentyl-7-ethyl-5-methyl-2-(4-(morpholine-4-carbonyl)-1H-imidazol-1-yl)-7,8-dihydropteridin-6(5H)-one]	1 to 10 µM	10 to 50 µM	< 1 µM	–	–
CC[C@@H]1C(=O)N(C)c2cnc(-n3cnc(C(=O)NC)c3)nc2N1C1CCCC1 [Example 46, (R)-1-(8-cyclopentyl-7-ethyl-5-methyl-6-oxo-5,6,7,8-tetrahydropteridin-2-yl)-N-methyl-1H-imidazole-4-carboxamide]	< 1 µM	1 to 10 µM	< 1 µM	–	–
CC[C@@H]1C(=O)N(C)c2cnc(-n3cnc(-c4cscn4)c3)nc2N1C1CCCC1 [Example 54, (R)-8-cyclopentyl-7-ethyl-5-methyl-2-(4-(thiazol-4-yl)-1H-imidazol-1-yl)-7,8-dihydropteridin-6(5H)-one]	< 1 µM	1 to 10 µM	< 1 µM	–	–
CC[C@@H]1C(=O)N(C)c2cnc(-n3ccnc3-c3ccccc3)nc2N1C1CCOC1 (stereo partly drawn) [Example 182]	–	< 1 µM	–	–	–
CC[C@@H]1C(=O)N(C)c2cnc(-n3ccnc3-c3ccccc3)nc2N1CCC(F)(F)F [Example 190]	–	1 to 10 µM	–	–	–
CC[C@@H]1C(=O)N(C)c2cnc(-n3ccnc3-c3ccccc3)nc2N1C1CCOC1 (stereo partly drawn) [Example 203]	–	1 to 10 µM	–	–	–
CC[C@@H]1C(=O)N(C)c2cnc(-n3ccnc3-c3ccc(F)cc3)nc2N1CCC(F)(F)F [Example 233]	–	10 to 50 µM	–	–	–
CC[C@@H]1C(=O)N(C)c2cnc(-n3ccnc3-c3ccc(F)cc3)nc2N1C1CCC(F)(F)C1 (stereo partly drawn) [Example 242]	–	1 to 10 µM	–	–	–
CC[C@@H]1C(=O)N(C)c2cnc(N3CCN=C3c3ccccc3)nc2N1C(C)C [Example 246, (R)-7-ethyl-8-isopropyl-5-methyl-2-(2-phenyl-4,5-dihydro-1H-imidazol-1-yl)-7,8-dihydropteridin-6(5H)-one]	–	–	–	1 to 10 µM	–
CC[C@@H]1C(=O)N(C)c2cnc(-n3ccnc3-c3ccc(F)cc3)nc2N1C1CC(F)(F)C1 [Example 247]	–	10 to 50 µM	–	–	–
CC[C@@]12CCCN1c1nc(-n3ccnc3-c3cccc(Br)c3)ncc1N(C)C2=O [Example 252]	–	–	< 1 µM	–	–
CN1C(=O)C(CC(F)(F)F)N(CCC(F)(F)F)c2nc(-n3ccnc3-c3ccc(F)cc3)ncc21 (stereo not drawn) [Example 255]	–	10 to 50 µM	–	–	–
CCC1C(=O)N(C)c2cnc(-n3ccnc3-c3ccc(F)cc3)nc2N1c1ccc(F)cc1 (stereo not drawn) [Example 324]	–	1 to 10 µM	–	–	–
CC[C@@H]1C(=O)N(C)c2cnc(-c3cn[nH]c3-c3nccs3)nc2N1C1CCOCC1 [Example 349]	–	< 1 µM	–	–	–
CC[C@@H]1C(=O)N(C)c2cnc(-n3ccc4ccccc43)nc2N1C1CCCC1 [Example 385]	–	> 50 µM	–	–	–
CC[C@@]12COCCN1c1nc(-n3ccnc3-c3ccccc3)ncc1NC2=O [Example 418, (S)-6a-ethyl-2-(2-phenyl-1H-imidazol-1-yl)-6a,7,9,10-tetrahydro-[1,4]oxazino[3,4-h]pteridin-6(5H)-one]	–	–	–	–	more active compound
